Test in all cases: relative viability (nuclei count vs DMSO), 5 days (fraction); higher = more cells survive
Compound in experiment [1]: N=C(N)NC(=N)NCCc1ccccc1 [Phenformin] (anchor plate)
The conditions noted are these: 250 µM. The essentials:
(§1)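 Five library-drug doses spaced by √10 were pinned onto vehicle-anchored 1536-well plates of lung cancer cell lines that had been kept overnight at 37 °C. Cells went 5 days without medium change, then were fixed, permeabilised and Hoechst-stained together, imaged at 4× and counted by MetaXpress. Viability is the ratio of treated-well to vehicle-well nuclei, taken as a median over plates. Plates required control CV below 25% and at least one doubling.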

Compound in experiment [2]: O=C(Nc1c[nH]nc1-c1nc2ccc(CN3CCOCC3)cc2[nH]1)NC1CC1 [AT9283]
The essentials: as §1

Compound in experiment [3]: C#Cc1cccc(Nc2ncnc3cc(OCCOC)c(OCCOC)cc23)c1 [Erlotinib]
Put shortly:
as §1

Compound in experiment [4]: O=C(Nc1c[nH]nc1-c1nc2ccc(CN3CCOCC3)cc2[nH]1)NC1CC1 [AT9283] + Nc1ncn([C@H]2C[C@H](O)[C@@H](CO)O2)c(=O)n1 [Decitabine] (partner 2 µM)
Put shortly:
(§2)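 Cells from lung cancer lines were seeded into 1536-well plates and, one day later, dosed by pin tool. Treatments were either a single drug or a fixed dose of an anchor drug with five library-drug doses (not always all listed) in √10 steps. After 5 days, nuclei were stained in a one-step fixation (final 0.05% Triton X-100, 1% formaldehyde, 1 ug/ml Hoechst) and counted on 4× images, and relative viability is the treated-to-vehicle nuclei ratio, as the median of duplicate plates.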

Compound in experiment [5]: C#Cc1cccc(Nc2ncnc3cc(OCCOC)c(OCCOC)cc23)c1 [Erlotinib] + O=C(CCCCCCC(=O)Nc1ccccc1)NO [Vorinostat] (partner 1 µM)
The essentials: as §2

Compound in experiment [6]: C#Cc1cccc(Nc2ncnc3cc(OCCOC)c(OCCOC)cc23)c1 [Erlotinib] + CC(C)C[C@H](NC(=O)[C@H](Cc1ccccc1)NC(=O)c1cnccn1)B(O)O [Bortezomib] (partner 0.002 µM)
Put shortly:
as §2

For one cell line, relative viability results are on record in the supplement of paper PMC10307832.

In the case of NCI-H441, the relative viability came to 0.87 in experiment [1]; 1.09 in experiment [2] (0.003 µM); 0.856 in experiment [2] (0.03 µM); 0.37 in experiment [2] (0.09487 µM); 0.337 in experiment [2] (0.3 µM); 1.1 in experiment [3] (0.2 µM). The relative viability in experiment [3] (0.6325 µM) came out at 1.05; in experiment [3] (2 µM), 0.848; in experiment [4] (first compound 0.003 µM) it was 0.245; in experiment [4] (first compound 0.03 µM), 0.281; in experiment [4] (first compound 0.09487 µM) it was 0.202; in experiment [4] (first compound 0.3 µM), 0.217. Moreover, the relative viability in experiment [5] (first compound 0.02 µM) worked out at 0.841; in experiment [5] (first compound 0.2 µM) it was 0.725; in experiment [5] (first compound 0.6325 µM), 0.84; in experiment [5] (first compound 2 µM) it was 0.745; in experiment [6] (first compound 0.02 µM) it was 0.724; in experiment [6] (first compound 0.2 µM) it was 0.471. Moreover, the figures for the relative viability in experiment [6] (first compound 0.6325 µM) and in experiment [6] (first compound 2 µM) were 0.383 and 0.219, respectively.
